According to US20100120700A1, “METHODS AND COMPOSITIONS FOR TREATING CERVICAL CANCER” (priority 2000, published 2010):
“And” between values parts separate entries of the source, which are not always exact repeats. Equal entries are not always repeated.

Assays:
Test in all cases: G assay PDZ-PL binding
PTN-4 domain 1 = biological target: T1, PTN-4 domain 1 (Homo sapiens, UniProt P29074); settings: peptide 10 uM, protein 5
T1 construct: made in house; host or cells: E. coli (DH5alpha, BL21 or JM109), vector pGEX-3X
T1 sequence (P29074 518-605): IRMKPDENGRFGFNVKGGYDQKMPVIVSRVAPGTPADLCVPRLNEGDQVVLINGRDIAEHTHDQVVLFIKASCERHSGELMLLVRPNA
Protocol: (§1) (1) A PDZ-domain polypeptide is bound to a surface, e.g. a protein binding surface. In a preferred embodiment, a GST/PDZ fusion protein containing one or more PDZ domains is bound to a polystyrene 96-well plate. […] In one embodiment, the GST/PDZ fusion protein is bound via an anti-GST antibody that is coated onto the 96-well plate. Adequate binding to the plate can be achieved when: • a. 100 uL per well of 5 ug/mL goat anti-GST polyclonal antibody (Pierce) in PBS is added to a polystyrene 96-well plate (e.g., Num Polysorb) at 4° C. for 12 hours. • b. The plate is blocked by addition of 200 uL per well of PBS/BSA for 2 hours at 4° C. • c. The plate is washed 3 times with PBS. • d. 50 uL per well of 5 ug/mL GST/PDZ fusion protein) or, as a negative control, GST polypeptide alone (i.e. not a fusion protein) in PBS/BSA is added to the plate for 2 hours at 4° C. • e. The plate is again washed 3 times with PBS.
(§2) (2) Biotinylated PL peptides are allowed to react with the surface by addition of 50 uL per well of 20 uM solution of the biotinylated peptide in PBS/BSA for 10 minutes at 4° C., followed by an additional 20 minute incubation at 25° C.
(§3) (3) The binding of the biotinylated peptide to the GST/PDZ fusion protein surface can be detected using a variety of methods and detectors known to one of skill in the art. In one embodiment, 100 uL per well of 0.5 ug/mL streptavidin-horse radish peroxidase (HRP) conjugate dissolved in BSA/PBS is added and allowed to react for 20 minutes at 4° C. The plate is then washed 5 times with 50 mM Tris pH 8.0 containing 0.2% Tween 20, and developed by addition of 100 uL per well of HRP-substrate solution (TMB, Dako) for 20 minutes at room temperature (RT). The reaction of the HRP and its substrate is terminated by addition of 100 uL per well of 1M sulfuric acid, and the absorbance of each well of the plate is read at 450 nm.
(§4) (4) Specific binding of a PL peptide and a PDZ domain polypeptide is determined by comparing the signal from the well(s) in which the PL peptide and PDZ domain polypeptide are combined, with the background signal(s). The background signal is the signal found in the negative control(s). Typically a specific or selective reaction will be at least twice background signal, more typically more than 5 times background, and most typically 10 or more times the background signal. In addition, a statistically significant reaction will involve multiple measurements of the reaction with the signal and the background differing by at least two standard errors, more typically four standard errors, and most typically six or more standard errors. Correspondingly, a statistical test (e.g. a T-test) comparing repeated measurements of the signal with-repeated measurements of the background will result in a p-value<0.05, more typically a p-value<0.01, and most typically a p-value<0.001 or less. As noted, in an embodiment of the “G” assay, the signal from binding of a given PL peptide to immobilized (surface bound) GST polypeptide alone is one suitable negative control (sometimes referred to as “B 1”). Because all measurement are done in multiples (i.e. at least duplicate) the arithmetic mean (or, equivalently, average.) of several measurements is used in determining the binding, and the standard error of the mean is used in determining the probable error in the measurement of the binding. The standard error of the mean of N measurements equals the square root of the following: the sum of the squares of the difference between each measurement and the mean, divided by the product of (N) and (N−1). Thus, in one embodiment, specific binding of the PDZ protein to the platebound peptide is determined by comparing the mean signal (“mean S”) and standard error of the signal (“SE”) for a particular PL-PDZ combination with the mean B1. […]

KIAA1719 domain 3 = biological target: T2, KIAA1719 domain 3 (Homo sapiens, UniProt Q9C0E4); settings: peptide 10 uM, protein 5
T2 construct: made in house; host or cells: E. coli (DH5alpha, BL21 or JM109)
T2 sequence (Q9C0E4 with tags, fused parts or gaps): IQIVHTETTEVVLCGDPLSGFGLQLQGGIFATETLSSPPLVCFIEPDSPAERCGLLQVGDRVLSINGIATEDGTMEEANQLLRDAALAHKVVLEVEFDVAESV
Protocol: as §1, §2, §3, §4

PAR3 #278.1 domain 3 = biological target: T3, PAR3 #278.1 domain 3 (Homo sapiens, UniProt Q8TEW0); settings: peptide 10 uM, protein 5
T3 construct: made in house; host or cells: E. coli (DH5alpha, BL21 or JM109)
T3 sequence (Q8TEW0 579-681): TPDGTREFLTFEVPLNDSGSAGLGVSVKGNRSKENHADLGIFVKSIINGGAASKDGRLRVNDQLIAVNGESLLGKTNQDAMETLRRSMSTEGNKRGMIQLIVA
Protocol: as §1, §2, §3, §4

ZO-2 domain 1 = biological target: T4, ZO-2 domain 1 (Homo sapiens, UniProt Q9UDY2); settings: peptide 10 uM, protein 5
T4 construct: made in house; host or cells: E. coli (DH5alpha, BL21 or JM109), vector pGEX-3X
T4 sequence (Q9UDY2 27-122): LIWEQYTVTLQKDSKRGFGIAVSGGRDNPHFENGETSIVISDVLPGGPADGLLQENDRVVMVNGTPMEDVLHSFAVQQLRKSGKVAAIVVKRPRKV
Protocol: as §1, §2, §3, §4

KIAA1526 #125.1 domain 1 = biological target: T5, KIAA1526 #125.1 domain 1 (Homo sapiens, UniProt Q9P202); settings: peptide 10 uM, protein 5
T5 construct: made in house; host or cells: E. coli (DH5alpha, BL21 or JM109)
T5 sequence (Q9P202 130-232): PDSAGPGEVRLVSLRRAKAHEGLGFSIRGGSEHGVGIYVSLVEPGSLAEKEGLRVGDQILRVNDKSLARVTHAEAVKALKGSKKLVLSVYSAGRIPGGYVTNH
Protocol: as §1, §2, §3, §4

PDZ-73 domain 2 = biological target: T6, PDZ-73 domain 2 (Homo sapiens, UniProt Q9Y6N9); settings: peptide 10 uM, protein 5
T6 construct: made in house; host or cells: E. coli (DH5alpha, BL21 or JM109), vector pGEX-3X
T6 sequence (Q9Y6N9 with tags, fused parts or gaps): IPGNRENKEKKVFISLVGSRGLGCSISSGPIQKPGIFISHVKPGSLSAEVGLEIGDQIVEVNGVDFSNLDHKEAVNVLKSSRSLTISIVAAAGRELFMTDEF
Protocol: as §1, §2, §3, §4

EBP50 #311.1 domain 1 = biological target: T7, EBP50 #311.1 domain 1 (Homo sapiens, UniProt O14745); settings: peptide 10 uM, protein 5
T7 construct: made in house; host or cells: E. coli (DH5alpha or BL-21)
T7 sequence (O14745 with tags, fused parts or gaps): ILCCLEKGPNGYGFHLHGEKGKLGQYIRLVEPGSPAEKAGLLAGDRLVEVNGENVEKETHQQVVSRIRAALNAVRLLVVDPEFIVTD
Protocol: as §1, §2, §3, §4

MAGI 1 domain 5 = biological target: T8, MAGI 1 domain 5 (Homo sapiens, UniProt Q96QZ7); settings: peptide 10 uM, protein 5
T8 construct: made in house; host or cells: E. coli (DH5alpha, BL21 or JM109)
T8 sequence (Q96QZ7 988-1099): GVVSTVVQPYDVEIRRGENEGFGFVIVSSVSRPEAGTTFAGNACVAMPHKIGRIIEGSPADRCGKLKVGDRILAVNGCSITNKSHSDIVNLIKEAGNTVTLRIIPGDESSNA
Protocol: as §1, §2, §3, §4

INADL domain 8 = biological target: T9, INADL domain 8 (Homo sapiens, UniProt Q8NI35); settings: peptide 10 uM, protein 5
T9 construct: made in house; host or cells: E. coli (DH5alpha or BL-21)
T9 sequence (Q8NI35 1425-1517): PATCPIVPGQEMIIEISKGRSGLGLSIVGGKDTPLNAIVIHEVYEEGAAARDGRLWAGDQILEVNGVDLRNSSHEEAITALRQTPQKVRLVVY
Protocol: as §1, §2, §3, §4

Outer Membrane domain 1 = biological target: T10, Outer Membrane domain 1 (Homo sapiens, UniProt P57105); settings: peptide 10 uM, protein 5
T10 construct: made in house; host or cells: E. coli (DH5alpha, BL21 or JM109)
T10 sequence (P57105 with tags, fused parts or gaps): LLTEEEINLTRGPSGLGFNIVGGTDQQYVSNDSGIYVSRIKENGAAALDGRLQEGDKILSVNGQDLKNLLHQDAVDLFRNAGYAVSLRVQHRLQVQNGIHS
Protocol: as §1, §2, §3, §4

Serine Protease domain 1 = biological target: T11, Serine Protease domain 1 (Homo sapiens, UniProt O43464); settings: peptide 10 uM, protein 5
T11 construct: made in house; host or cells: E. coli (DH5alpha, BL21 or JM109)
T11 sequence (O43464 344-452): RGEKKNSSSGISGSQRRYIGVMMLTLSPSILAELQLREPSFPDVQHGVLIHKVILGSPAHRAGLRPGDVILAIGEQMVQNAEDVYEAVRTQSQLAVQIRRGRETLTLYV
Protocol: as §1, §2, §3, §4

PSD95 domain 2 = biological target: T12, PSD95 domain 2 (Homo sapiens, UniProt P78352); settings: vs GST only well, peptide 10 uM, protein 5
T12 construct: made in house; host or cells: E. coli (DH5alpha, BL21 or JM109)
Protocol: as §1, §2, §3, §4

KIAA0973 #288.2 domain 1 = biological target: T13, KIAA0973 #288.2 domain 1 (Homo sapiens, UniProt Q9Y2H9); settings: peptide 10 uM, protein 5
T13 construct: made in house; host or cells: E. coli (DH5alpha, BL21 or JM109)
T13 sequence (Q9Y2H9 963-1055): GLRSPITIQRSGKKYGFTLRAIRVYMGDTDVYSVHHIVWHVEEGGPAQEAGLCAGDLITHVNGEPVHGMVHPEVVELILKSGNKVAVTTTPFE
Protocol: as §1, §2, §3, §4

KIAA0382 domain 1 = biological target: T14, KIAA0382 domain 1 (Homo sapiens, UniProt Q9NZN5); settings: peptide 10 uM, protein 5
T14 construct: made in house; host or cells: E. coli (DH5alpha, BL21 or JM109), vector pGEX-3X
T14 sequence (Q9NZN5 with tags, fused parts or gaps): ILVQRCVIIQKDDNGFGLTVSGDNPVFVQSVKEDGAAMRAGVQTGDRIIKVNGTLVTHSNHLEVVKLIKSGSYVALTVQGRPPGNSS
Protocol: as §1, §2, §3, §4

Substance: 20 mer peptide corresponding to the C-terminus of HPV16 E6 (PDZ ligand), biotinylated in binding assays; ends SSRTRRETQL (SEQ ID NO: 13) [HPV E6 #16]
- Ave OD (PTN-4 domain 1; A450 nm): 0.8085
- OD S/N (PTN-4 domain 1; vs GST only well): 4.03
- Ave OD (KIAA1719 domain 3; A450 nm): 0.346
- OD S/N (KIAA1719 domain 3; vs GST only well): 1.65
- Ave OD (PAR3 #278.1 domain 3; A450 nm): 0.352
- OD S/N (PAR3 #278.1 domain 3; vs GST only well): 1.80
- Ave OD (ZO-2 domain 1; A450 nm): 0.3415 and 0.622
- OD S/N (ZO-2 domain 1; vs GST only well): 2.11 and 2.56
- Ave OD (KIAA1526 #125.1 domain 1; A450 nm): 1.379 and 0.7665
- OD S/N (KIAA1526 #125.1 domain 1; vs GST only well): 6.69 and 3.57
- Ave OD (PDZ-73 domain 2; A450 nm): 0.5615
- OD S/N (PDZ-73 domain 2; vs GST only well): 1.95
- Ave OD (EBP50 #311.1 domain 1; A450 nm): 0.4325
- OD S/N (EBP50 #311.1 domain 1; vs GST only well): 2.05
- Ave OD (MAGI 1 domain 5; A450 nm): 0.4325 and 0.541
- OD S/N (MAGI 1 domain 5; vs GST only well): 1.77 and 3.12
- Ave OD (INADL domain 8; A450 nm): 0.3875
- OD S/N (INADL domain 8; vs GST only well): 1.58
- Ave OD (Outer Membrane domain 1; A450 nm): 2.392 and 1.3595
- OD S/N (Outer Membrane domain 1; vs GST only well): 11.39 and 6.25
- Ave OD (Serine Protease domain 1; A450 nm): 0.3425
- OD S/N (Serine Protease domain 1; vs GST only well): 1.55
- OD S/N (PSD95 domain 2): 12.23 and 12.53
- Ave OD (KIAA0973 #288.2 domain 1; A450 nm): 2.8295 and 3.85
- OD S/N (KIAA0973 #288.2 domain 1; vs GST only well): 10.11 and 16.42
- Ave OD (KIAA0382 domain 1; A450 nm): 0.712 and 0.6995
- OD S/N (KIAA0382 domain 1; vs GST only well): 3.61 and 2.66
